A short description of the data set: TGA (thermogravimetric analysis) of thermal stability. The following applies: FIG. 3, ranking among the three compounds.

SMILES strings stand for the structures.

Consider `OC[C@H]1O[C@@H]2O[C@H]3[C@H](O)[C@@H](O)[C@@H](O[C@H]4[C@H](O)[C@@H](O)[C@@H](O[C@H]5[C@H](O)[C@@H](O)[C@@H](O[C@H]6[C@H](O)[C@@H](O)[C@@H](O[C@H]7[C@H](O)[C@@H](O)[C@@H](O[C@H]8[C@H](O)[C@@H](O)[C@@H](O[C@H]1[C@H](O)[C@H]2O)O[C@@H]8CO)O[C@@H]7CO)O[C@@H]6CO)O[C@@H]5CO)O[C@@H]4CO)O[C@@H]3CO` [β-CD, β-cyclodextrin], for which the thermal stability entry is listed as “highest”.
